Literature values as cited in patent US20230037437A1, “FORMULATIONS FOR USE IN THE TREATMENT OF DIFFERENT TYPES OF ADDICTIONS AND DEPENDENCE ON ADDICTIVE SUBSTANCES” (UNIBIOLABS INTERNACIONAL S.A DE C.V, priority 2019, published 2023).

Assays:
[1] = target: dopamine transporter (DAT) (Homo sapiens, UniProt Q01959); conditions: relative to cocaine
IKr channel (hERG) = IKr channel (hERG) (Homo sapiens, UniProt Q12809)
serotonin transporter = serotonin transporter (Homo sapiens, UniProt P31645)
cocaine abusers = conditions: patients taking magnesium versus placebo

IKr channel (hERG), sequence (Q12809 whole entry): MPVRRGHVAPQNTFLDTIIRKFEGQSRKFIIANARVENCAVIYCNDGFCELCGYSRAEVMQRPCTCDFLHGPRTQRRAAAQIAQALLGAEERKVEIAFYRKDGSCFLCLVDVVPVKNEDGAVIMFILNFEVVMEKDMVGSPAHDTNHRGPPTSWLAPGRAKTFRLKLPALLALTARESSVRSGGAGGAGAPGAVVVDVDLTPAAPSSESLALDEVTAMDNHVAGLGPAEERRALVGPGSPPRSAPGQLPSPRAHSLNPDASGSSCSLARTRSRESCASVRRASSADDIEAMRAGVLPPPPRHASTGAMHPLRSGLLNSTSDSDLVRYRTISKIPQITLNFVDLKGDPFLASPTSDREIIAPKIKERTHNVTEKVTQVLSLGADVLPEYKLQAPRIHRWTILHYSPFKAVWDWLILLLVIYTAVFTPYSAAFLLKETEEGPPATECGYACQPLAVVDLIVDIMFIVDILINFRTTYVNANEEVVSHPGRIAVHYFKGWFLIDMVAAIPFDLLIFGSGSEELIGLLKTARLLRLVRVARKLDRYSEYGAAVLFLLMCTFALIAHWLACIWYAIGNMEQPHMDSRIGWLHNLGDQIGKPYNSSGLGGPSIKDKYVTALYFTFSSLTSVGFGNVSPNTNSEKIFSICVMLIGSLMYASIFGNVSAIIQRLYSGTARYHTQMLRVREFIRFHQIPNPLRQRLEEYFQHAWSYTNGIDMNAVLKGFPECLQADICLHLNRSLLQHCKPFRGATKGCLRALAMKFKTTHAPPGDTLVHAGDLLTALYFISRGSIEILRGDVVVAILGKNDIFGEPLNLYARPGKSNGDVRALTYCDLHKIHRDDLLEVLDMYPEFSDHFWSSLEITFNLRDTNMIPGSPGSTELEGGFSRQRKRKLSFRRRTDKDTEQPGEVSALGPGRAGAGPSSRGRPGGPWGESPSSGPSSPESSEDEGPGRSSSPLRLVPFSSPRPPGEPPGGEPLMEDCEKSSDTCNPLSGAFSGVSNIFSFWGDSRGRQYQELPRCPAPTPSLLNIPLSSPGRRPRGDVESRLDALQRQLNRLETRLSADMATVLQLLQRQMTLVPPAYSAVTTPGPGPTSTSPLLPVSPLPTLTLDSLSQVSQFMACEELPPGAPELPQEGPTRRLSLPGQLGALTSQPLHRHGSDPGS
dopamine transporter (DAT), sequence (Q01959 whole entry, species assumed): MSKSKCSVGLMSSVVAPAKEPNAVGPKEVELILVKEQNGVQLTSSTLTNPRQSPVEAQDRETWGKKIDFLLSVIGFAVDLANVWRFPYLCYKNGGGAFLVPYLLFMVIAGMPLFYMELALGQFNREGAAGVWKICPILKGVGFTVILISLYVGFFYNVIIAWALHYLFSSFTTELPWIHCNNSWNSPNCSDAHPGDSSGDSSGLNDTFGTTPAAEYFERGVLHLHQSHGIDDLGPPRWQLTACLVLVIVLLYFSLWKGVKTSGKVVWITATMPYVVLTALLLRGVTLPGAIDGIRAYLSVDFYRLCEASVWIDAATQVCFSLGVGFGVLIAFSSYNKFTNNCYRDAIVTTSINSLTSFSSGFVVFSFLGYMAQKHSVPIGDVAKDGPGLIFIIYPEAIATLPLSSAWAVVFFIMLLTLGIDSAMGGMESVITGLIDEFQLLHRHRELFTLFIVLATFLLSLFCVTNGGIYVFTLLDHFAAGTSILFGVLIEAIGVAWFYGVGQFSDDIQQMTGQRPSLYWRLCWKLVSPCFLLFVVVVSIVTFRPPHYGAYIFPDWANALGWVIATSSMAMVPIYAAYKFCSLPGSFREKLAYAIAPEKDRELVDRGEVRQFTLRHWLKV
serotonin transporter, sequence (P31645 whole entry): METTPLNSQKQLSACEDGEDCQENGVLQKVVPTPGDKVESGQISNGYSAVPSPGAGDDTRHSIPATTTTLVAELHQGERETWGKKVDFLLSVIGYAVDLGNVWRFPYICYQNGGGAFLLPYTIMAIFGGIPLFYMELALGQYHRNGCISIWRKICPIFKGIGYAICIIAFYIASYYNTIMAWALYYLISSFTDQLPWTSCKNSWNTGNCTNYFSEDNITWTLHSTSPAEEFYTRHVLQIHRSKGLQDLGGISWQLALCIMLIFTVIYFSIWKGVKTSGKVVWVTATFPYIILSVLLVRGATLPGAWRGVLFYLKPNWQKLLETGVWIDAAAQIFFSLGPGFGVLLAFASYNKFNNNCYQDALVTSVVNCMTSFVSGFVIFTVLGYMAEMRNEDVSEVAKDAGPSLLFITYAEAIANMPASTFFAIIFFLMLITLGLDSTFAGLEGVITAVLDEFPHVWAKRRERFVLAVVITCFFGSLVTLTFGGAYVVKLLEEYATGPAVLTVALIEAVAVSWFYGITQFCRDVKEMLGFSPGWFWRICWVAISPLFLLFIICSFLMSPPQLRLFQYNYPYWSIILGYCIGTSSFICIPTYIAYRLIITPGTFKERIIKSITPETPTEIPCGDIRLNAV

SMILES | binding to the target site on the dopamine transporter (DAT), stronger than cocaine [1] | IKr channel (hERG) block (IKr channel (hERG)) | affinity to the serotonin transporter (serotonin transporter) | cocaine craving scores, lower than in patients taking placebo (cocaine abusers) [%]
Fc1ccc(C(OCCN2CCN(CCCc3ccccc3)CC2)c2ccc(F)cc2)cc1 [GBR 12909, Vanoxerine] | approximately 50 times | potent IKr channel blocker | nanomolar affinity | 
[Mg+2] [magnesium] |  |  |  | 78
